From article PMC7419507, “In vitro Cas9-assisted editing of modular polyketide synthase genes to produce desired natural product derivatives” (Nature Communications, 2020)
Where “and” joins values, the source holds several entries; their conditions need not be identical. Identical values can stand only once.

Assays:
Type in all cases: cell-based
[1] = tested on: Jurkat, SKOV-3 and MESO-1 cells; experiment: Cytotoxicity assay, statements for all tested cell lines together
Procedure, shortened: (§1)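 Following 4 h attachment at 1000 cells/well, the three lines received serially halved compound doses (DMSO 0.5%) for 72 h at 37 °C under 5% CO2, with cell viability then determined by CellTiter-Glo.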

[2] = Cytotoxicity assay (CellTiter-Glo, 72 h), Jurkat; details: human, Jurkat cells (T lymphoma), raw data (replicates)
Procedure, shortened: as §1

T lymphoma Jurkat cells = experiment: Cytotoxicity assay (CellTiter-Glo, 72 h), Jurkat; details: raw data (replicates)
Procedure, shortened: as §1

[3] = tested on: human ovarian adenocarcinoma SKOV-3 cells; experiment: Cytotoxicity assay (CellTiter-Glo, 72 h), SKOV-3; details: raw replicate data
Procedure, shortened: as §1

COC1CC2CCC(C)C(O)(O2)C(=O)C(=O)N2CCCCC2C(=O)OC(C(C)CC2CCC(O)C(OC)C2)CC(=O)C(C)C=C(C)C(O)C(OC)C(=O)C(C)CC(C)C=CCCC=C1C (centres unmarked) [Compound 15, 19,20-dihidro-rapamycin]
Effect on cell viability, in words ([1]; Jurkat, SKOV-3 and MESO-1 cells, 72 h): slightly suppressed the cell viabilities
Cytostatic effect, fold lower than that of 1 ([1]; relative to rapamycin (1)): ~ 100 fold
viability at 72 h, 9.53674e-05 uM ([2]; conc 9.53674e-5 uM): 98.3%
viability at 72 h, 0.000190735 uM ([2]; conc 0.000190735 uM): 102%
viability at 72 h, 0.00038147 uM ([2]; conc 0.00038147 uM): 96.7%
viability at 72 h, 0.000762939 uM ([2]; conc 0.000762939 uM): 101%
viability at 72 h, 0.00152588 uM ([2]; conc 0.00152588 uM): 97.4%
viability at 72 h, 0.00305176 uM ([2]; conc 0.00305176 uM): 94.6%
viability at 72 h, 0.00610352 uM ([2]; conc 0.00610352 uM): 96.3%
viability at 72 h, 0.012207 uM ([2]; conc 0.012207 uM): 95.5%
viability at 72 h, 0.0244141 uM ([2]; conc 0.0244141 uM): 98.5%
viability at 72 h, 0.0488281 uM ([2]; conc 0.0488281 uM): 84.9%
viability at 72 h, 0.0976562 uM ([2]; conc 0.0976562 uM): 83.5%
viability at 72 h, 0.195312 uM ([2]; conc 0.195312 uM): 65.5%
viability at 72 h, 0.390625 uM ([2]; conc 0.390625 uM): 61.7%
viability at 72 h, 0.78125 uM ([2]; conc 0.78125 uM): 43.6%
viability at 72 h, 1.5625 uM ([2]; conc 1.5625 uM): 40.7%
viability at 72 h, 3.125 uM ([2]; conc 3.125 uM): 28.2%
viability at 72 h, 6.25 uM ([2]; conc 6.25 uM): 26.6%
viability at 72 h, 12.5 uM ([2]; conc 12.5 uM): 25.9%
viability at 72 h, 25 uM ([2]; conc 25 uM): 1%
Jurkat viability (%) (T lymphoma Jurkat cells; conc 9.53674e-5 uM): 103.4% and 100.1%
Jurkat viability (%) (T lymphoma Jurkat cells; conc 0.000190735 uM): 103.2%
Jurkat viability (%) (T lymphoma Jurkat cells; conc 0.00038147 uM): 100.9% and 97.1%
Jurkat viability (%) (T lymphoma Jurkat cells; conc 0.000762939 uM): 96.9%
Jurkat viability (%) (T lymphoma Jurkat cells; conc 0.00152588 uM): 95.1% and 104.8%
Jurkat viability (%) (T lymphoma Jurkat cells; conc 0.00305176 uM): 96.4% and 103.3%
Jurkat viability (%) (T lymphoma Jurkat cells; conc 0.00610352 uM): 98.6% and 98.2%
Jurkat viability (%) (T lymphoma Jurkat cells; conc 0.012207 uM): 89.1% and 95.4%
Jurkat viability (%) (T lymphoma Jurkat cells; conc 0.0244141 uM): 88.3% and 94.3%
Jurkat viability (%) (T lymphoma Jurkat cells; conc 0.0488281 uM): 80.5% and 86.7%
Jurkat viability (%) (T lymphoma Jurkat cells; conc 0.0976562 uM): 80.2% and 77.6%
Jurkat viability (%) (T lymphoma Jurkat cells; conc 0.195312 uM): 65.6% and 66.3%
Jurkat viability (%) (T lymphoma Jurkat cells; conc 0.390625 uM): 56.5% and 56.0%
Jurkat viability (%) (T lymphoma Jurkat cells; conc 0.78125 uM): 41.6% and 42.0%
Jurkat viability (%) (T lymphoma Jurkat cells; conc 1.5625 uM): 32.3% and 35.9%
Jurkat viability (%) (T lymphoma Jurkat cells; conc 3.125 uM): 27.6% and 27.0%
Jurkat viability (%) (T lymphoma Jurkat cells; conc 6.25 uM): 24.6% and 25.7%
Jurkat viability (%) (T lymphoma Jurkat cells; conc 12.5 uM): 23.9% and 25.0%
Jurkat viability (%) (T lymphoma Jurkat cells; conc 25 uM): 1.5% and 1.1%
Jurkat viability (%) (T lymphoma Jurkat cells; conc 50 uM): 0.429% and 0.113% and 0.047%
SKOV3 viability (%) ([3]; conc 9.53674e-5 uM): 104.4%
SKOV3 viability (%) ([3]; conc 0.000190735 uM): 106.7% and 103.7%
SKOV3 viability (%) ([3]; conc 0.00038147 uM): 104.3% and 105.3%
SKOV3 viability (%) ([3]; conc 0.000762939 uM): 104.7% and 102.3%
SKOV3 viability (%) ([3]; conc 0.00152588 uM): 105.8%
SKOV3 viability (%) ([3]; conc 0.00610352 uM): 104.8% and 103.3%
SKOV3 viability (%) ([3]; conc 0.012207 uM): 100.2% and 102.5%
SKOV3 viability (%) ([3]; conc 0.0244141 uM): 99.1% and 104.1%
SKOV3 viability (%) ([3]; conc 0.0488281 uM): 98.9% and 94.0%
SKOV3 viability (%) ([3]; conc 0.0976562 uM): 97.9% and 101.5%
SKOV3 viability (%) ([3]; conc 0.195312 uM): 91.8% and 87.6%
SKOV3 viability (%) ([3]; conc 0.390625 uM): 93.7% and 87.4%
SKOV3 viability (%) ([3]; conc 0.78125 uM): 82.2% and 82.5%
SKOV3 viability (%) ([3]; conc 1.5625 uM): 81.5% and 77.5%
SKOV3 viability (%) ([3]; conc 3.125 uM): 73.9% and 77.4%
SKOV3 viability (%) ([3]; conc 6.25 uM): 68.2% and 74.1%
SKOV3 viability (%) ([3]; conc 12.5 uM): 67.0% and 61.2%
SKOV3 viability (%) ([3]; conc 25 uM): 54.3% and 53.4%
